Experimental data: patent publication US12502390B2, “Compositions comprising tigolaner for controlling parasites” ([…], priority 2019, dated 2025)
Like-named read-outs stand apart in the source and are kept apart here.

Assays:
Boophilus microplus [1] = settings: Boophilus microplus dip test; 100 ppm; cited from earlier work
Rhipicephalus sanguineus = Rhipicephalus sanguineus contact test; 1 μg/cm^2; cited from earlier work
Ctenocephalides felis [2] = settings: Ctenocephalides felis oral test; 100 ppm; cited from earlier work
[3] = Solubility of tigolaner in solketal (1,2-isopropylideneglycerol); type: physicochemical
From the text: In another embodiment of the composition the solvent component comprises only 1,2-isopropylideneglycerol.

Ctenocephalides felis [4] = settings: Ctenocephalides felis contact test; 1 μg/cm^2; cited from earlier work
Musca domestica = settings: 100 ppm; cited from earlier work
Boophilus microplus [5] = settings: Boophilus microplus injection test; 20 μg/tick; cited from earlier work
Ixodes ricinus = Ixodes ricinus contact test; 1 μg/cm^2; cited from earlier work
Lucilia cuprina = settings: 100 ppm; cited from earlier work
Amblyomma hebraeum [6] = settings: Amblyomma hebraeum contact test; 1 μg/cm^2; cited from earlier work
Ctenocephalides felis [7] = settings: rats, application rate 10 mg/kg, cited from earlier work
Amblyomma hebraeum [8] = settings: 100 ppm; cited from earlier work
Dermacentor variabilis = settings: rats; day 2; application rate 10 mg/kg; cited from earlier work

For `Cn1nc(C(F)(F)C(F)(F)F)c(C(F)(F)F)c1-n1cc(-c2ccc(Cl)c(C(=O)NC3(C#N)CC3)c2)cn1` [Tigolaner], the efficacy (Boophilus microplus [1]) is listed as 100%, the efficacy (Rhipicephalus sanguineus) is listed as 100% and the efficacy (Ctenocephalides felis [2]) is listed as 100%. The “solubility of tigolaner in solketal in the presence of praziquantel” value ([3]; in the presence of praziquantel, in particular of 7.5 to 8.5% w/w of praziquantel) was “more than 10.5 % w/w”, the “effect of lactic acid on solubility of tigolaner in 1,2-isopropylideneglycerol” value ([3]; presence of lactic acid) was “slightly lowers the solubility” and the “solubility of tigolaner in solketal alone” value ([3]; solketal alone) was 9.5-9.9 % w/w. The efficacy (Ctenocephalides felis [4]) was 100%, the efficacy (Musca domestica) was 100% and the efficacy (Boophilus microplus [5]) was 100%. For the same compound, the efficacy (Ixodes ricinus) was 100%, the efficacy (Lucilia cuprina) was 100% and the efficacy (Amblyomma hebraeum [6]) was 100%. The efficacy against fleas (Ctenocephalides felis [7]; day 2) was > 95%, the efficacy against fleas (Ctenocephalides felis [7]; day 9) was > 90% and the efficacy (Amblyomma hebraeum [8]) was 100%. For the same compound, the “efficacy against tick nymphs” value (Dermacentor variabilis) was > 90%.
